Measurements from patent US20230096766A1, “AMINO ACID HAVING FUNCTIONAL GROUP CAPABLE OF INTERMOLECULAR HYDROGEN BONDING, PEPTIDE COMPOUND CONTAINING SAME AND METHOD FOR PRODUCTION THEREOF” (Chugai Seiyaku Kabushiki Kaisha, priority 2018, published 2023).
*1 amine or outer side, *2 acyl side, *3 side chain or, on linkers, in order; H or OH if unused. Where a SMILES comes first, the peptide text is derived from it. Bridges are numbered along the chain shown (N, C = ends). [ ]: non-standard residue; d: D form. The star is where a group is joined. ξ: configuration not given here. dhPhe(4-CONHMe,3-OMe) = CNC(=O)c1ccc(CC[C@@H](N)C(=O)O)cc1OC; hPhe(3-OMe,4-CONHMe) = CNC(=O)c1ccc(CC[C@H](N)C(=O)O)cc1OC; X11 = CNC(=O)c1ccc(CCN(CC(=O)[*:2])[*:1])cc1OC; NMeF = CN[C@@H](Cc1ccccc1)C(=O)O; NMeGABA = CN(CCCC(=O)[*:2])[*:1]; ξThr(3R) = C[C@@H](O)C(N)C(=O)O; NMeL = CN[C@@H](CC(C)C)C(=O)O; ξNMeF = CNC(Cc1ccccc1)C(=O)O; NMeV = CN[C@H](C(=O)O)C(C)C; NMeAbu = CC[C@H](NC)C(=O)O; NMeA = CN[C@@H](C)C(=O)O; Piperidide = C1CCN(*)CC1; NBuGly = CCCCNCC(=O)O; Sar = CNCC(=O)O; tBu = CC(C)(C)*

Assay: in vitro
Settings: human, Caco-2, Caco-2 (cm/sec)

| Structure (SMILES) | Papp |
| --- | --- |
| CNC(=O)c1ccc(CC[C@@H]2NC(=O)[C@H](CC(C)C)N(C)C(=O)CCCN(C)C(=O)C[C@@H](C(=O)N3CCCCC3)NC(=O)[C@H](CC(C)C)N(C)C(=O)[C@H](CC(C)C)N(C)C(=O)[C@H]([C@@H](C)O)NC(=O)[C@H](CC(C)C)N(C)C(=O)[C@H](COC(C)(C)C)NC(=O)[C@H](Cc3ccccc3)N(C)C(=O)[C@H](CC(C)C)N(C)C2=O)cc1OC [AP203] ([NMeGABA][NMeL][hPhe(3-OMe,4-CONHMe)][NMeL][NMeF]S(tBu)[NMeL]T[NMeL][NMeL]D-Piperidide; lactam N-11) | 0.41 ×10⁻⁶ cm/s |
| CC[C@H]1C(=O)N[C@@H](CC(C)C)C(=O)N(C)[C@@H](CC(C)C)C(=O)N(C)C(Cc2ccccc2)C(=O)N[C@@H](CCc2ccc(C(=O)NC)c(OC)c2)C(=O)N(C)[C@@H](CC(C)C)C(=O)N(C)[C@@H](CC(C)C)C(=O)N[C@@H]([C@@H](C)O)C(=O)N(C)CC(=O)N(C)[C@@H](CC(C)C)C(=O)N[C@H](C(=O)N2CCCCC2)CC(=O)N1C (stereo partly drawn) [AP204] ([NMeAbu]L[NMeL][ξNMeF][hPhe(3-OMe,4-CONHMe)][NMeL][NMeL]T[Sar][NMeL]D-Piperidide; lactam N-11) | 1.6 ×10⁻⁶ cm/s |
| CC[C@H]1C(=O)N[C@@H](CCc2ccc(C(=O)NC)c(OC)c2)C(=O)N(C)[C@@H](CC(C)C)C(=O)N(C)[C@@H](CC(C)C)C(=O)N[C@@H](C(C)C)C(=O)N(C)[C@@H](Cc2ccccc2)C(=O)N(C)[C@@H](CC(C)C)C(=O)N[C@@H]([C@@H](C)O)C(=O)N(C)CC(=O)N(C)[C@@H](CC(C)C)C(=O)N[C@H](C(=O)N2CCCCC2)CC(=O)N1C [AP205] ([NMeAbu][hPhe(3-OMe,4-CONHMe)][NMeL][NMeL]V[NMeF][NMeL]T[Sar][NMeL]D-Piperidide; lactam N-11) | 0.79 ×10⁻⁶ cm/s |
| CCCCN1CC(=O)N(C)[C@@H](Cc2ccccc2)C(=O)N(C)[C@@H](CC(C)C)C(=O)N[C@@H](CC(C)C)C(=O)N(C)[C@@H](CC(C)C)C(=O)N[C@H](C(=O)N2CCCCC2)CC(=O)N(C)CC(=O)N(C)[C@@H](CC(C)C)C(=O)N[C@@H](CCc2ccc(C(=O)NC)c(OC)c2)C(=O)N(C)[C@@H](CC)C(=O)N[C@@H]([C@@H](C)O)C1=O [AP206] ([Sar][NMeL][hPhe(3-OMe,4-CONHMe)][NMeAbu]T[NBuGly][NMeF][NMeL]L[NMeL]D-Piperidide; lactam N-11) | 0.86 ×10⁻⁶ cm/s |
| CCCCN1CC(=O)N(C)[C@@H](Cc2ccccc2)C(=O)N(C)[C@@H](CC(C)C)C(=O)N[C@@H](CCc2ccc(C(=O)NC)c(OC)c2)C(=O)N(C)[C@@H](CC(C)C)C(=O)N[C@H](C(=O)N2CCCCC2)CC(=O)N(C)CC(=O)N(C)[C@@H](CC(C)C)C(=O)N[C@@H]([C@@H](C)CC)C(=O)N(C)[C@@H](CC(C)C)C(=O)N[C@@H]([C@@H](C)O)C1=O [AP207] ([Sar][NMeL]I[NMeL]T[NBuGly][NMeF][NMeL][hPhe(3-OMe,4-CONHMe)][NMeL]D-Piperidide; lactam N-11) | 0.51 ×10⁻⁶ cm/s |
| CNC(=O)c1ccc(CC[C@H]2NC(=O)[C@H](CC(C)C)N(C)C(=O)CN(C)C(=O)C([C@@H](C)O)NC(=O)[C@H](CC(C)C)N(C)C(=O)[C@H](CC(C)C)NC(=O)[C@H](Cc3ccccc3)N(C)C(=O)[C@@H](C(C)C)NC(=O)C[C@@H](C(=O)N3CCCCC3)NC(=O)[C@H](CC(C)C)N(C)C(=O)[C@H](CC(C)C)N(C)C2=O)cc1OC (stereo partly drawn) [AP208] ([dV][NMeF]L[NMeL][ξThr(3R)][Sar][NMeL][dhPhe(4-CONHMe,3-OMe)][NMeL][NMeL]D-Piperidide; lactam N-11) | 0.6 ×10⁻⁶ cm/s |
| CCCCN1CC(=O)N(C)[C@@H](CC(C)C)C(=O)N[C@@H](COC(C)(C)C)C(=O)N(C)[C@@H](CC(C)C)C(=O)N(C)[C@@H](CC)C(=O)N[C@H](C(=O)N2CCCCC2)CC(=O)N[C@H](CC(C)C)C(=O)N(C)[C@@H](Cc2ccccc2)C(=O)N[C@H](CCc2ccc(C(=O)NC)c(OC)c2)C(=O)N(C)[C@@H](CC(C)C)C(=O)N[C@@H]([C@@H](C)O)C1=O [AP209] ([dL][NMeF][dhPhe(4-CONHMe,3-OMe)][NMeL]T[NBuGly][NMeL]S(tBu)[NMeL][NMeAbu]D-Piperidide; lactam N-11) | 0.56 ×10⁻⁶ cm/s |
| CC[C@H](C)[C@@H]1NC(=O)[C@H](CC(C)C)N(C)C(=O)CCCN(C)C(=O)C[C@@H](C(=O)N2CCCCC2)NC(=O)[C@H](CC(C)C)N(C)C(=O)[C@H](CC(C)C)N(C)C(=O)[C@H]([C@@H](C)O)NC(=O)[C@H](CC(C)C)N(C)C(=O)[C@@H](CCc2ccc(C(=O)NC)c(OC)c2)NC(=O)[C@H](CC(C)C)N(C)C(=O)[C@H](Cc2ccccc2)N(C)C1=O [AP210] ([NMeGABA][NMeL]I[NMeF][NMeL][dhPhe(4-CONHMe,3-OMe)][NMeL]T[NMeL][NMeL]D-Piperidide; lactam N-11) | 0.34 ×10⁻⁶ cm/s |
| CNC(=O)c1ccc(CC[C@H]2NC(=O)[C@H](CC(C)C)N(C)C(=O)CCCN(C)C(=O)C[C@@H](C(=O)N3CCCCC3)NC(=O)[C@H](CC(C)C)N(C)C(=O)[C@H](CC(C)C)N(C)C(=O)[C@H]([C@@H](C)O)NC(=O)[C@H](CC(C)C)N(C)C(=O)[C@H](COC(C)(C)C)NC(=O)[C@H](Cc3ccccc3)N(C)C(=O)[C@H](CC(C)C)N(C)C2=O)cc1OC [AP211] ([NMeGABA][NMeL][dhPhe(4-CONHMe,3-OMe)][NMeL][NMeF]S(tBu)[NMeL]T[NMeL][NMeL]D-Piperidide; lactam N-11) | 0.36 ×10⁻⁶ cm/s |
| CC[C@H]1C(=O)N[C@@H](CC(C)C)C(=O)N(C)[C@@H](CC(C)C)C(=O)N(C)[C@@H](Cc2ccccc2)C(=O)N[C@H](CCc2ccc(C(=O)NC)c(OC)c2)C(=O)N(C)[C@@H](CC(C)C)C(=O)N(C)[C@@H](CC(C)C)C(=O)N[C@@H]([C@@H](C)O)C(=O)N(C)CC(=O)N(C)[C@@H](CC(C)C)C(=O)N[C@H](C(=O)N2CCCCC2)CC(=O)N1C [AP212] ([NMeAbu]L[NMeL][NMeF][dhPhe(4-CONHMe,3-OMe)][NMeL][NMeL]T[Sar][NMeL]D-Piperidide; lactam N-11) | 0.64 ×10⁻⁶ cm/s |
| CC[C@H]1C(=O)N[C@H](CCc2ccc(C(=O)NC)c(OC)c2)C(=O)N(C)[C@@H](CC(C)C)C(=O)N(C)[C@@H](CC(C)C)C(=O)N[C@@H](C(C)C)C(=O)N(C)[C@@H](Cc2ccccc2)C(=O)N(C)[C@@H](CC(C)C)C(=O)N[C@@H]([C@@H](C)O)C(=O)N(C)CC(=O)N(C)[C@@H](CC(C)C)C(=O)N[C@H](C(=O)N2CCCCC2)CC(=O)N1C [AP213] ([NMeAbu][dhPhe(4-CONHMe,3-OMe)][NMeL][NMeL]V[NMeF][NMeL]T[Sar][NMeL]D-Piperidide; lactam N-11) | 0.34 ×10⁻⁶ cm/s |
| CCCCN1CC(=O)N(C)[C@@H](Cc2ccccc2)C(=O)N(C)[C@@H](CC(C)C)C(=O)N[C@@H](CC(C)C)C(=O)N(C)[C@@H](CC(C)C)C(=O)N[C@H](C(=O)N2CCCCC2)CC(=O)N(C)CC(=O)N(C)[C@@H](CC(C)C)C(=O)N[C@H](CCc2ccc(C(=O)NC)c(OC)c2)C(=O)N(C)[C@@H](CC)C(=O)N[C@@H]([C@@H](C)O)C1=O [AP214] ([Sar][NMeL][dhPhe(4-CONHMe,3-OMe)][NMeAbu]T[NBuGly][NMeF][NMeL]L[NMeL]D-Piperidide; lactam N-11) | 0.84 ×10⁻⁶ cm/s |
| CCCCN1CC(=O)N(C)[C@@H](Cc2ccccc2)C(=O)N(C)[C@@H](CC(C)C)C(=O)N[C@H](CCc2ccc(C(=O)NC)c(OC)c2)C(=O)N(C)[C@@H](CC(C)C)C(=O)N[C@H](C(=O)N2CCCCC2)CC(=O)N(C)CC(=O)N(C)[C@@H](CC(C)C)C(=O)N[C@@H]([C@@H](C)CC)C(=O)N(C)[C@@H](CC(C)C)C(=O)N[C@@H]([C@@H](C)O)C1=O [AP215] ([Sar][NMeL]I[NMeL]T[NBuGly][NMeF][NMeL][dhPhe(4-CONHMe,3-OMe)][NMeL]D-Piperidide; lactam N-11) | 0.43 ×10⁻⁶ cm/s |
| CC[C@H]1C(=O)N[C@@H]([C@@H](C)O)C(=O)N(CCc2ccc(C(=O)NC)c(OC)c2)CC(=O)N(C)[C@@H](CC(C)C)C(=O)N[C@@H](COC(C)(C)C)C(=O)N(C)[C@@H](CC(C)C)C(=O)N(C)[C@@H](CC(C)C)C(=O)N[C@H](C(=O)N2CCCCC2)CC(=O)N[C@H](C)C(=O)N(C)[C@@H](Cc2ccccc2)C(=O)N[C@@H](CC(C)C)C(=O)N1C [AP216] ([dA][NMeF]L[NMeAbu]T[X11][NMeL]S(tBu)[NMeL][NMeL]D-Piperidide; lactam N-11) | 0.99 ×10⁻⁶ cm/s |
| CC[C@H]1C(=O)N(C)[C@@H](Cc2ccccc2)C(=O)N[C@@H](C)C(=O)N(C)[C@@H](CC(C)C)C(=O)N(C)[C@@H](CC(C)C)C(=O)N[C@@H]([C@@H](C)O)C(=O)N(CCc2ccc(C(=O)NC)c(OC)c2)CC(=O)N(C)[C@@H](CC(C)C)C(=O)N[C@H](C(=O)N2CCCCC2)CC(=O)N(C)[C@@H](C(C)C)C(=O)N[C@@H](CC(C)C)C(=O)N1C [AP217] ([NMeV]L[NMeAbu][NMeF]A[NMeL][NMeL]T[X11][NMeL]D-Piperidide; lactam N-11) | 1 ×10⁻⁶ cm/s |
| CC[C@H](C)[C@@H]1NC(=O)[C@H](CC(C)C)N(C)C(=O)CN(C)C(=O)C[C@@H](C(=O)N2CCCCC2)NC(=O)[C@H](CC(C)C)N(C)C(=O)[C@H](COC(C)(C)C)NC(=O)[C@H](CC(C)C)N(C)C(=O)[C@H](Cc2ccccc2)N(C)C(=O)CN(CCc2ccc(C(=O)NC)c(OC)c2)C(=O)[C@H]([C@@H](C)O)NC(=O)[C@H](CC)N(C)C1=O [AP218] ([Sar][NMeL]I[NMeAbu]T[X11][NMeF][NMeL]S(tBu)[NMeL]D-Piperidide; lactam N-11) | 0.55 ×10⁻⁶ cm/s |
| CC[C@H]1C(=O)N[C@@H]([C@@H](C)O)C(=O)N(C)CC(=O)N(C)[C@@H](Cc2ccccc2)C(=O)N(C)[C@@H](CC(C)C)C(=O)N[C@@H](COC(C)(C)C)C(=O)N(C)[C@@H](CC(C)C)C(=O)N[C@H](C(=O)N2CCCCC2)CC(=O)N(CCc2ccc(C(=O)NC)c(OC)c2)CC(=O)N(C)[C@@H](CC(C)C)C(=O)N[C@@H](CC(C)C)C(=O)N1C [AP219] ([X11][NMeL]L[NMeAbu]T[Sar][NMeF][NMeL]S(tBu)[NMeL]D-Piperidide; lactam N-11) | 1.3 ×10⁻⁶ cm/s |
| CCCCN1CC(=O)N(C)[C@@H](C)C(=O)N[C@@H](COC(C)(C)C)C(=O)N(C)[C@@H](CC(C)C)C(=O)N(CCc2ccc(C(=O)NC)c(OC)c2)CC(=O)N[C@H](C(=O)N2CCCCC2)CC(=O)N[C@H](CC(C)C)C(=O)N(C)[C@@H](Cc2ccccc2)C(=O)N[C@@H](CC(C)C)C(=O)N(C)[C@@H](CC(C)C)C(=O)N[C@@H]([C@@H](C)O)C1=O [AP220] ([dL][NMeF]L[NMeL]T[NBuGly][NMeA]S(tBu)[NMeL][X11]D-Piperidide; lactam N-11) | 0.8 ×10⁻⁶ cm/s |
